Data as given in US20050148632A1, “Therapeutic agent for intestinal diseases and visceral pain” (priority 2002, published 2005).

Test system: 5-hydroxytryptophan (5-HTP)-induced defecation models of mice
Assay: Effect on 5-hydroxytryptophan (5-HTP)-induced defecation models of mice in vivo
Conditions: male SLC:ICR mice; 30 mg/kg orally, 30 minutes before 10 mg/kg 5-HTP s.c.; stool scored during 30 minutes
Method: Effect on 5-hydroxytryptophan (5-HTP)-induced defecation models of mice in vivo:
The tests were conducted by using (R)-3-(2-(2-(4-methylpiperidine-1-yl)-ethyl)pyrrolidine-1-sulfonyl)phenol (synthesized according to a method described in WO 97/48681) known to be a selective 5-HT7 receptor antagonist as test compound 1 by a method of G. J. Sanger et al. (British Journal of Pharmacology, 130: 706-712, 2000).
Male SLC:ICR mice (6 weeks) were placed in a series of 5 stainless steel cages for mice. After the acclimation for one hour or longer, 30 mg/kg of test compound 1 was orally administered to them (n=10). 30 minutes after, 10 mg/5mL/kg of 5-HTP (or 5 mL/kg of physiological saline in a group in which 5-HTP was not used) was subcutaneously administered to the mice . The stool excreted by each mouse during 30 minutes after the administration was observed (the results were scored as follows: 0: normal stool or no defecation, 1: diarrhea or soft stool). The inhibitory rate (%) of test compound 1 was calculated while the score obtained by subtracting the score of the 5-HTP-free group from the score of the 5-HTP group was determined to be 100%.

CC1CCN(CC[C@H]2CCCN2S(=O)(=O)c2cccc(O)c2)CC1 [test compound 1, (R)-3-(2-(2-(4-methylpiperidine-1-yl)-ethyl)pyrrolidine-1-sulfonyl)phenol]
control rate (inhibitory rate of 5-HTP-induced diarrhea/soft stool score): 70%
